Here are results for eleven molecules from patent US11530210B2, “Substituted heteroaromatic pyrazolo-pyridines and their use as GLUN2B receptor modulators” (JANSSEN PHARMACEUTICA NV, priority 2019, dated 2022).

SMILES strings stand for the structures. Where only a bound is given, the exact number is not on record here.

Data set [1] deals with T1, human GluN1/GluN2B NMDA receptors (Homo sapiens, UniProt Q05586+Q13224).
T1 construct: expressed in transfected cells
Description: Calcium flux (FLIPR) assay on cloned human NR1/GluN2B ion channels expressed in mammalian cells (standard and HTS variants). The format is cell-based. Conditions: cells expressing human GluN1/GluN2B, glutamate and glycine co-agonists. The gist of the method:
(§1)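 Tet-On-induced stable cell line loaded with Calcium 5 dye; compounds applied 5 min (agonist check), then glutamate at ~EC40 plus 10 μM glycine for 5 min. Buffer pH 7.4 with 0.5 mM MgCl2 in dye loading (standard) or 1.5 mM (HTS). FLIPR fluorescence normalized to control wells; (+)MK-801 as antagonist control.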

Data set [2] can be described thus: Liver microsomal stability (extraction ratio). The format is in vitro ADME, mouse, rat, and human. The conditions noted are these: test compound 1 μM, 0.5 mg/mL liver microsomes, NADPH 1 mM, 37° C.; ER = predicted hepatic clearance / species blood flow; species not given. How it is done: Protocol for Liver Microsomal Stability (Extraction Ratio)
Liver Microsomal Stability. Microsomal stability studies (Chrovian et al, “1H-Pyrrolo[3,2-b]pyridine GluN2B-Selective Negative Allosteric Modulators”. ACS Med Chem Lett. 2019 Jan. 10; 10(3):261-266) were conducted on a Biomek® FX Robotic Liquid Handling Workstation (Beckman Coulter, Brea, Calif.), which consists of a 96-channel pipette head, a 12-postion workstation deck, and a plate incubator. Test compounds (1 μm) were spiked in a reaction mix consisting of 100 mM potassium phosphate buffer (pH 7.4), 3 mM MgCl2, and 0.5 mg/mL liver microsomes from mouse, rat, and human (BD Gentest). The reaction was brought to 37° C. and initiated by adding NADPH to a final concentration of 1 mM. After mixing on the platedeck, 50 µL aliquots were excised from the reaction plate at 0, 5, 10, 20, 40, and 60 min and quenched with four volumes of acetonitrile spiked with […] of the internal standard phenytoin. Quenched plates were centrifuged at 5700 rpm for 10 min at 4° C., and supernatant was diluted 1:3 in water before LC/MS/MS analysis. The compound half-lives were derived from plots of the ln of percent remaining compound over time to determine the intrinsic clearance. The predicted hepatic clearance was derived from the intrinsic clearance value using equations from the well-stirred model (Current Drug Metabolism, 2008, 9, 940-951), where no correction was made plasma protein binding and the blood to plasma concentration ratio was assumed to be one.

Data set [3] addresses T2, human GluN1/GluN2B NMDA receptors (Homo sapiens, UniProt Q13224).
T2 construct: expressed in transfected cells
Description: Calcium flux (FLIPR) assay on cloned human NR1/GluN2B ion channels expressed in mammalian cells (standard and HTS variants). The format is cell-based. Conditions: cells expressing human GluN1/GluN2B, glutamate and glycine co-agonists. The gist of the method:
as §1

T2 sequence (Q13224 27-1484, other chains not shown): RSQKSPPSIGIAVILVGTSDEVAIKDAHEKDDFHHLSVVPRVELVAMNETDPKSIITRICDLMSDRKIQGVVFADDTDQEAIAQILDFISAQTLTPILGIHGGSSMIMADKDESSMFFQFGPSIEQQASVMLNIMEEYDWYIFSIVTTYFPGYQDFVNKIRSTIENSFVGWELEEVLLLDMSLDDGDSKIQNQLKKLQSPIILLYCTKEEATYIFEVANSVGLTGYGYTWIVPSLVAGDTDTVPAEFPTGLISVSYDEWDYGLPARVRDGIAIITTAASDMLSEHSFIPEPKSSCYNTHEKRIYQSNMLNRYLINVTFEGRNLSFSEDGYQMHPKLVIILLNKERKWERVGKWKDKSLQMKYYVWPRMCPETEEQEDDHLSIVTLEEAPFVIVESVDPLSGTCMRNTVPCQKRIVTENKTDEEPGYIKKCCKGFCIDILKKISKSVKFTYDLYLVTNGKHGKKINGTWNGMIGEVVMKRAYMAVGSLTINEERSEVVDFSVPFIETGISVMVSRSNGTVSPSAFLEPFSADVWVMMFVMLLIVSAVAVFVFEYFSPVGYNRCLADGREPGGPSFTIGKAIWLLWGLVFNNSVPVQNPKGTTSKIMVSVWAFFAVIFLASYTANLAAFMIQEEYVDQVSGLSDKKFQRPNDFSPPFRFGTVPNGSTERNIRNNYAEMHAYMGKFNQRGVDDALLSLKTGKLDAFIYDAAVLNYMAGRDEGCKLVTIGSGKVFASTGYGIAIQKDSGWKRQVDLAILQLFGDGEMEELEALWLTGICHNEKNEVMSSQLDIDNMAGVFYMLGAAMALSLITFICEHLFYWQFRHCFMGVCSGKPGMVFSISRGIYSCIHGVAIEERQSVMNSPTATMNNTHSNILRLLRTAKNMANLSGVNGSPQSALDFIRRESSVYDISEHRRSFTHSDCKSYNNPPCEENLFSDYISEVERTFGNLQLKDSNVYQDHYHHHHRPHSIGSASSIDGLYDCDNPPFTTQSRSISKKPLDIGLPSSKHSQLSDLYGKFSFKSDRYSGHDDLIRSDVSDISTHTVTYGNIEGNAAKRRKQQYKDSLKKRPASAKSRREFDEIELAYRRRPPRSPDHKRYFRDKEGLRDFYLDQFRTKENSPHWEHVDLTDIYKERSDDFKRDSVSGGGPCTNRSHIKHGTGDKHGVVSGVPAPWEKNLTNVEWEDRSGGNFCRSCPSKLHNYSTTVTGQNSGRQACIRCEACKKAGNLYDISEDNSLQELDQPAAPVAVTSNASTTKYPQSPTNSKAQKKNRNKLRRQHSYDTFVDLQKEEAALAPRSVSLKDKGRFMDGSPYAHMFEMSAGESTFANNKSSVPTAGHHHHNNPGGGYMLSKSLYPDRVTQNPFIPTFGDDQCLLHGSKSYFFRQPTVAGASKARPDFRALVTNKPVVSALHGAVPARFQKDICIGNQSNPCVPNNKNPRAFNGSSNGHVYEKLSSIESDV
T1 sequence (Q13224 27-1484, other chains not shown): as above

As for `CC(F)(F)c1cccc(-c2cnc3cnn(Cc4cccnc4)c3c2)c1` [Example 12, 6-[3-(1,1-Difluoroethyl)phenyl]-1-(3-pyridylmethyl)pyrazolo[4,3-b]pyridine], the IC50 in data set [1] worked out at 0.026 µM.

Consider `CC(F)(F)c1cc(-c2cnc3cnn(Cc4cn[nH]c4)c3c2)ccc1F` [Example 40, 6-[3-(1,1-Difluoroethyl)-4-fluoro-phenyl]-1-(1H-pyrazol-4-ylmethyl)pyrazolo[4,3-b]pyridine], for which the IC50 in data set [1] is 0.825 µM.

With `Cc1nnc(Cn2nc(F)c3ncc(-c4ccc(F)c(C(F)F)c4)cc32)o1` [Example 96, 2-[[6-[3-(Difluoromethyl)-4-fluoro-phenyl]-3-fluoro-pyrazolo[4,3-b]pyridin-1-yl]methyl]-5-methyl-1,3,4-oxadiazole], the “Extraction Ratio @ 1 μM” value in data set [2] is recorded as under 0.298. The IC50 in data set [3] is 0.038 µM.

As for `Cc1nc(Cn2ncc3ncc(-c4ccc(F)c(C(F)F)c4)cc32)no1` [Example 97, 3-[[6-[3-(Difluoromethyl)-4-fluoro-phenyl]pyrazolo[4,3-b]pyridin-1-yl]methyl]-5-methyl-1,2,4-oxadiazole], the “Extraction Ratio @ 1 μM” value in data set [2] is 0.42. In addition, the IC50 in data set [3] is 0.041 µM.

On to `Cc1nnc(Cn2ncc3ncc(-c4ccc(F)c(C(F)F)c4)cc32)s1` [Example 122, 2-[[6-[3-(Difluoromethyl)-4-fluoro-phenyl]pyrazolo[4,3-b]pyridin-1-yl]methyl]-5-methyl-1,3,4-thiadiazole], for which, in data set [2], the “Extraction Ratio @ 1 μM” value is on record as 0.60. In data set [3], the IC50 is 0.018 µM.

Take `COc1nnc(Cn2ncc3ncc(-c4ccc(F)c(OC(F)F)c4)cc32)s1` [Example 134, 2-[[6-[3-(difluoromethoxy)-4-fluoro-phenyl]pyrazolo[4,3-b]pyridin-1-yl]methyl]-5-methoxy-1,3,4-thiadiazole]: in data set [1], the IC50 was found to be 1.32 µM.

As for `Fc1ccc(-c2cnc3cnn(Cc4cccnc4)c3c2)cc1C(F)F` [Example 198, 6-[3-(Difluoromethyl)-4-fluoro-phenyl]-1-(3-pyridylmethyl)pyrazolo[4,3-b]pyridine], in data set [2], the “Extraction Ratio @ 1 μM” value is on record as 0.65. For the same molecule, in data set [3], the IC50 turned out to be 0.008 µM.

As for `Fc1cncc(Cn2ncc3ncc(-c4ccc(F)c(C(F)F)c4)cc32)c1` [Example 202, 6-[3-(Difluoromethyl)-4-fluoro-phenyl]-1-[(5-fluoro-3-pyridyl)methyl]pyrazolo[4,3-b]pyridine], the “Extraction Ratio @ 1 μM” value in data set [2] is recorded as 0.57. Also, the IC50 in data set [3] was determined as 0.014 µM.

On to `Fc1ccc(-c2cnc3cnn(Cc4cccnn4)c3c2)cc1C(F)F` [Example 261, 6-[3-(Difluoromethyl)-4-fluoro-phenyl]-1-(pyridazin-3-ylmethyl)pyrazolo[4,3-b]pyridine], for which the “Extraction Ratio @ 1 μM” value in data set [2] is listed as under 0.298. Further, the half-inhibitory concentration (IC50) in data set [3] came out at 0.023 µM.

With `Fc1ccc(-c2cnc3cnn(Cc4cncnc4)c3c2)cc1C(F)F` [Example 275, 6-[3-(Difluoromethyl)-4-fluoro-phenyl]-1-(pyrimidin-5-ylmethyl)pyrazolo[4,3-b]pyridine], the “Extraction Ratio @ 1 μM” value in data set [2] is 0.36. Also, in data set [3], the IC50 is 0.012 µM.

Take `[2H]c1nn(Cc2nnc(C)o2)c2cc(-c3ccc(F)c(C(F)F)c3)cnc12` [compound 297, 2-[[3-Deuterio-6-[3-(difluoromethyl)-4-fluoro-phenyl]pyrazolo [4,3-b]pyridin-1-yl]methyl]-5-methyl-1,3,4-oxadiazole]: the IC50 in data set [1] was 0.024 µM.
